According to patent publication US20250304563A1, “ACTIVATORS OF EFFECTOR T CELLS” (Orum Therapeutics, Inc., priority 2022, published 2025):

Experiments:
Human primary T cells [1] = experiment: T cell activation: secreted IL-2; assay type: cell-based; details: 48 hours, fold over background normalized to Compound 141A; for IL-2 1 nM: 1 nM compound; for IL-2 10 nM: 10 nM compound; for IL-2 100 nM: 100 nM compound
Procedure: (§1) Human primary T cells were isolated from commercially available frozen peripheral blood mononuclear cells (HemaCare Corporation) or from fresh LeukoPaks (Research Blood Components). T cells were isolated through depletion of non-T cells using negative selection kit according to the manufacturer's protocol (Miltenyi Biotec, Human Pan T Cell Isolation Kit, 130-096-535). Isolated cells were cultured overnight at 37° C. with 5% CO2 and plated at 1×10^5 cells per well in XVivo-15 serum-free media (Lonza, 04-418Q) into 96 well plates coated with anti-CD3 (OKT3) antibody (ThermoFisher, 16-0037-85). To coat the plates for T cell capture, anti-CD3 antibody was diluted in PBS at 10 μg/mL and 100 μl added to each well. Plates were incubated at 4° C. overnight or at 37° C. for 2 hours and washed once with PBS before use. Serial dilutions of each compound were added in duplicates to the T cells to assess their effect on T cell activation. T cells treated with 5 μg/mL of CD28 antibody (ThermoFisher, 16-0289-85) or T cells stimulated by CD3 only were used as a control. Plates were incubated with the Cbl-b inhibitors for 48 hours at 37° C. with 5% CO2, and supernatants were subsequently analyzed for levels of the activation induced secreted cytokines IL-2 or IFN-y (BD Biosciences CBA Flex Beads, 558269, 558270). T cells were additionally stained with anti-CD69 antibody (Invitrogen, 12-0699-42 which labels a T cell activation associated membrane protein to and surface expression was measured by flow cytometry (ThermoFisher Attune NxT).
(§2) To control for natural inter-donor variability in T cell responses intrinsic to using primary human donor derived cells, secreted IL-2 and IFN-y measurements for each test compound were reported as the fold increase of the compound treated levels over background (antiCD3/CD28 treatment only) normalized to the values obtained for Compound 141A. Results for compound treatment-induced changes in CD69 levels are similarly reported as the fold increase due to compound treatment over anti-CD3 stimulated background only, normalized to values obtained for Compound 141A.
Normalized T cell IL-2 responses were sorted into ranges as follows: fold over background values between 1.41 and 1.8: range “X”, between 0.80 and 1.40: range “A”, values between 0.31 and 0.79: range “B” values between 0.10 and 0.30: range “C”, values between 0.01 and 0.09: range “D.”

[2] = target: Cbl-b (36-427 aa truncated form, N-terminus Avi-tag) (Homo sapiens (Human), UniProt Q13191); experiment: Cbl-b binding: TR-FRET displacement of BODIPY-FL probe
Summary of the method: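 IC50 from loss of terbium–BODIPY-FL TR-FRET signal as compounds compete off a fluorescent Cbl-b inhibitor probe (1 uM) for 1 h at RT. Protein: N-Avi-tagged human Cbl-b 36-427 on streptavidin-terbium, 20 mM HEPES pH 7.5 buffer.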

Human primary T cells [3] = experiment: T cell activation: CD69 surface expression by flow cytometry; assay type: cell-based; details: fold over anti-CD3 stimulated background normalized to Compound 141A; for CD69 10 nM: 10 nM compound; for CD69 100 nM: 100 nM compound
Procedure: as §1, §2
Similarly, bins for normalized CD69 levels were sorted into ranges as follows: fold over background values between 1.11 and 1.6: range “X”, values between 0.81 and 1.10: range “A”; values between 0.61 and 0.80: range “B;” values between 0.30 and 0.60: range “C”.

Human primary T cells [4] = experiment: T cell activation: secreted IFN-y; assay type: cell-based; details: 48 hours, fold over background normalized to Compound 141A; for IFN-y 1 nM: 1 nM compound; for IFN-y 10 nM: 10 nM compound; for IFN-y 100 nM: 100 nM compound
Procedure: as §1, §2
Normalized T cell IFN-y responses were sorted into ranges as follows: fold over background between 1.10 and 2.00: range “A”, values between 0.31 and 1.00: range “B;” values between 0.10 and 0.30: range “C”, and values between 0.01 and 0.09: range “D.”

Cbl-b (36-427 aa truncated form, N-terminus Avi-tag), sequence (Q13191 36-427): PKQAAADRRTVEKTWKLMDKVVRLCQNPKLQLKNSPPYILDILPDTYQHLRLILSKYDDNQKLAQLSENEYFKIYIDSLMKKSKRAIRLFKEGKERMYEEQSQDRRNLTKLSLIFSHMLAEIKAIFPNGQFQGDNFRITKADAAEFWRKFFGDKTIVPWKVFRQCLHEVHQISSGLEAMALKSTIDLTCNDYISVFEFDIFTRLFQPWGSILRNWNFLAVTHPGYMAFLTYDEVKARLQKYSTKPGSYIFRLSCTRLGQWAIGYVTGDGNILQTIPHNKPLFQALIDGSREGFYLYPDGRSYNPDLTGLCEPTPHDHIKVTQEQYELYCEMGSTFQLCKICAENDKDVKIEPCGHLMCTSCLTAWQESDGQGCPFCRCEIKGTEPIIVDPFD

IC50 [2]	Compound	IL-2 1 nM (Human primary T cells [1])	IL-2 10 nM (Human primary T cells [1])	IL-2 100 nM (Human primary T cells [1])	CD69 10 nM (Human primary T cells [3])	CD69 100 nM (Human primary T cells [3])	IFN-y 1 nM (Human primary T cells [4])	IFN-y 10 nM (Human primary T cells [4])	IFN-y 100 nM (Human primary T cells [4])
100 to 1000 nM	C[C@H]1CCCN(Cc2cc3c(c(C(F)(F)F)c2)CN(c2cc(C4(Cc5nncn5C)COC4)cc(C#N)n2)C3=O)C1 [Compound 115, 4-{3-[(4-methyl-1,2,4-triazol-3-yl)methyl]oxetan-3-yl}-6-(6-{[(3S)-3-methylpiperidin-1-yl]methyl}-1-oxo-4-(trifluoromethyl)-3H-isoindol-2-yl)pyridine-2-carbonitrile]	C (values between 0.10 and 0.30: range “C”)	C (values between 0.10 and 0.30: range “C”)	B (values between 0.31 and 0.79: range “B”)	C (values between 0.30 and 0.60: range “C”)	B (values between 0.61 and 0.80: range “B;”)	C (values between 0.10 and 0.30: range “C”)	C (values between 0.10 and 0.30: range “C”)	B (values between 0.31 and 1.00: range “B;”)
5.01 to 20 nM	C=CC(=O)NCc1cc(C2(Cc3nncn3C)COC2)cc(N2Cc3c(cc(CN4CCC[C@H](C)C4)cc3C(F)(F)F)C2=O)n1 [Compound 116, N-[(4-{3-[(4-methyl-1,2,4-triazol-3-yl)methyl]oxetan-3-yl}-6-(6-{[(3S)-3-methylpiperidin-1-yl]methyl}-1-oxo-4-(trifluoromethyl)-3H-isoindol-2-yl)pyridin-2-yl)methyl]prop-2-enamide]	C (values between 0.10 and 0.30: range “C”)	C (values between 0.10 and 0.30: range “C”)	B (values between 0.31 and 0.79: range “B”)	C (values between 0.30 and 0.60: range “C”)	B (values between 0.61 and 0.80: range “B;”)	C (values between 0.10 and 0.30: range “C”)	C (values between 0.10 and 0.30: range “C”)	B (values between 0.31 and 1.00: range “B;”)
1 to 5 nM	C[C@H]1CCCN(Cc2cc3c(c(C(F)(F)F)c2)CN(c2cc(C4(Cc5nncn5C)COC4)cc(NCCN=[N+]=[N-])n2)C3=O)C1 [Compound 118, 2-{6-[(2-azidoethyl)amino]-4-{3-[(4-methyl-1,2,4-triazol-3-yl)methyl]oxetan-3-yl}pyridin-2-yl}-6-{[(3S)-3-methylpiperidin-1-yl]methyl}-4-(trifluoromethyl)-3H-isoindol-1-one]	B (values between 0.31 and 0.79: range “B”)	B (values between 0.31 and 0.79: range “B”)	A (between 0.80 and 1.40: range “A”)	A (values between 0.81 and 1.10: range “A”)	A (values between 0.81 and 1.10: range “A”)	B (values between 0.31 and 1.00: range “B;”)	A (fold over background between 1.10 and 2.00: range “A”)	A (fold over background between 1.10 and 2.00: range “A”)
1 to 5 nM	C[C@H]1CCCN(Cc2cc3c(c(C(F)(F)F)c2)CN(c2cc(C4(Cc5nncn5C)COC4)cc(NCC#N)n2)C3=O)C1 [Compound 119, (S)-2-((4-(3-((4-methyl-4H-1,2,4-triazol-3-yl)methyl)oxetan-3-yl)-6-(6-((3-methylpiperidin-1-yl)methyl)-1-oxo-4-(trifluoromethyl)isoindolin-2-yl)pyridin-2-yl)amino)acetonitrile]	C (values between 0.10 and 0.30: range “C”)	B (values between 0.31 and 0.79: range “B”)	B (values between 0.31 and 0.79: range “B”)	B (values between 0.61 and 0.80: range “B;”)	A (values between 0.81 and 1.10: range “A”)	C (values between 0.10 and 0.30: range “C”)	B (values between 0.31 and 1.00: range “B;”)	B (values between 0.31 and 1.00: range “B;”)
20 to 100 nM	C=CC(=O)N1CCN(c2cc(C3(Cc4nncn4C)COC3)cc(N3Cc4c(cc(CN5CCC[C@H](C)C5)cc4C(F)(F)F)C3=O)n2)CC1 [Compound 121, (S)-2-(6-(4-acryloylpiperazin-1-yl)-4-(3-((4-methyl-4H-1,2,4-triazol-3-yl)methyl)oxetan-3-yl)pyridin-2-yl)-6-((3-methylpiperidin-1-yl)methyl)-4-(trifluoromethyl)isoindolin-1-one]	C (values between 0.10 and 0.30: range “C”)	C (values between 0.10 and 0.30: range “C”)	B (values between 0.31 and 0.79: range “B”)	C (values between 0.30 and 0.60: range “C”)	A (values between 0.81 and 1.10: range “A”)	C (values between 0.10 and 0.30: range “C”)	C (values between 0.10 and 0.30: range “C”)	B (values between 0.31 and 1.00: range “B;”)

Compound	IC50 [2]	IL-2 1 nM (Human primary T cells [1])	IL-2 10 nM (Human primary T cells [1])	IL-2 100 nM (Human primary T cells [1])	CD69 10 nM (Human primary T cells [3])	CD69 100 nM (Human primary T cells [3])	IFN-y 1 nM (Human primary T cells [4])	IFN-y 10 nM (Human primary T cells [4])	IFN-y 100 nM (Human primary T cells [4])
CCNc1cc(C2(Cc3nncn3C)COC2)cc(N2Cc3c(cc(C(CSC)N4CCC[C@H](C)C4)cc3C(F)(F)F)C2=O)n1.O=C(O)C(F)(F)F (stereo partly drawn) [Compound 117, 2-[6-(ethylamino)-4-{3-[(4-methyl-1,2,4-triazol-3-yl)methyl]oxetan-3-yl}pyridin-2-yl]-6-{1-[(3S)-3-methylpiperidin-1-yl]-2-(methylsulfanyl)ethyl}-4-(trifluoromethyl)-3H-isoindol-1-one; trifluoroacetic acid]	20 to 100 nM	C (values between 0.10 and 0.30: range “C”)	C (values between 0.10 and 0.30: range “C”)	C (values between 0.10 and 0.30: range “C”)	C (values between 0.30 and 0.60: range “C”)	B (values between 0.61 and 0.80: range “B;”)	C (values between 0.10 and 0.30: range “C”)	C (values between 0.10 and 0.30: range “C”)	B (values between 0.31 and 1.00: range “B;”)
C[C@H]1CCCN(Cc2cc3c(c(C(F)(F)F)c2)CN(c2cc(C4(Cc5nncn5C)COC4)cc(SCC(O)CO)n2)C3=O)C1.O=CO (stereo partly drawn) [Compound 120, 2-{6-[(2,3-dihydroxypropyl)sulfanyl]-4-{3-[(4-methyl-1,2,4-triazol-3-yl)methyl]oxetan-3-yl}pyridin-2-yl}-6-{[(3S)-3-methylpiperidin-1-yl]methyl}-4-(trifluoromethyl)-3H-isoindol-1-one; formic acid]	20 to 100 nM	C (values between 0.10 and 0.30: range “C”)	C (values between 0.10 and 0.30: range “C”)	C (values between 0.10 and 0.30: range “C”)	C (values between 0.30 and 0.60: range “C”)	C (values between 0.30 and 0.60: range “C”)	C (values between 0.10 and 0.30: range “C”)	C (values between 0.10 and 0.30: range “C”)	C (values between 0.10 and 0.30: range “C”)
C[C@H]1CCCN(Cc2cc3c(c(C(F)(F)F)c2)CN(c2cc(C4(Cc5nncn5C)COC4)cc(OCCCC#N)n2)C3=O)C1.O=C(O)C(F)(F)F [Compound 122, 4-[(4-{3-[(4-methyl-1,2,4-triazol-3-yl)methyl]oxetan-3-yl}-6-(6-{[(3S)-3-methylpiperidin-1-yl]methyl}-1-oxo-4-(trifluoromethyl)-3H-isoindol-2-yl)pyridin-2-yl)oxy]butanenitrile; trifluoroacetic acid]	1 to 5 nM	C (values between 0.10 and 0.30: range “C”)	B (values between 0.31 and 0.79: range “B”)	B (values between 0.31 and 0.79: range “B”)	B (values between 0.61 and 0.80: range “B;”)	A (values between 0.81 and 1.10: range “A”)	C (values between 0.10 and 0.30: range “C”)	B (values between 0.31 and 1.00: range “B;”)	B (values between 0.31 and 1.00: range “B;”)
